Reference: PubChem BioAssay (NCI)
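GI50 = concentration required for 50% inhibition of growth. TGI marks complete inhibition of growth.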

Tests used:
Test in all cases: NCI-60 cell line screen, 384-well format
[1] = test system: 786-0 renal
[2] = test system: A498 renal
[3] = test system: A549 NSCLC
[4] = test system: ACHN renal
[5] = test system: BT-549 breast
[6] = test system: CAKI-1 renal
[7] = test system: CCRF-CEM leukemia
[8] = test system: COLO 205 colon
[9] = test system: DU-145 prostate
[10] = test system: EKVX NSCLC
[11] = test system: HCC-2998 colon
[12] = test system: HCT-15 colon
[13] = test system: HL-60(TB) leukemia
[14] = test system: HOP-62 NSCLC
[15] = test system: HOP-92 NSCLC
[16] = test system: HS 578T breast
[17] = test system: HT29 colon
[18] = test system: IGROV1 ovarian
[19] = test system: KM12 colon
[20] = test system: M14 melanoma
[21] = test system: MALME-3M melanoma
[22] = test system: MCF7 breast
[23] = test system: MDA-MB-231 breast
[24] = test system: MDA-MB-435 melanoma
[25] = test system: MDA-MB-468 breast
[26] = test system: MOLT-4 leukemia
[27] = test system: NCI-H226 lung
[28] = test system: NCI-H23 lung
[29] = test system: NCI-H322M lung
[30] = test system: NCI-H460 NSCLC
[31] = test system: NCI-H522 lung
[32] = test system: NCI/ADR-RES ovarian
[33] = test system: OVCAR-3 ovarian
[34] = test system: OVCAR-4 ovarian
[35] = test system: OVCAR-5 ovarian
[36] = test system: OVCAR-8 ovarian
[37] = test system: PC-3 prostate
[38] = test system: RPMI-8226 leukemia
[39] = test system: RXF 393 renal
[40] = test system: SF-268 CNS
[41] = test system: SF-295 CNS
[42] = test system: SF-539 CNS
[43] = test system: SK-MEL-28 melanoma
[44] = test system: SK-MEL-5 melanoma
[45] = test system: SK-OV-3 ovarian
[46] = test system: SN12C renal
[47] = test system: SNB-19 CNS
[48] = test system: SNB-75 CNS
[49] = test system: SR leukemia
[50] = test system: SW-620 colon
[51] = test system: T-47D breast
[52] = test system: TK-10 renal
[53] = test system: U251 glioblastoma
[54] = test system: UACC-257 melanoma
[55] = test system: UACC-62 melanoma

For `Nc1nc(N)c(N=O)c(OCC2CCCCC2)n1`, the GI50 [1] was 23.9 µM, the TGI [1] was > 100 µM and the GI50 [2] was 5.34 µM. For the same molecule, the TGI [2] was 25.3 µM, the GI50 [3] was 17.6 µM and the TGI [3] was 64.1 µM. It also gave a GI50 [4] of 27.3 µM, a TGI [4] of 85.9 µM and a GI50 [5] of 5.63 µM. The TGI [5] was 26.1 µM, the GI50 [6] was 8.55 µM and the TGI [6] was 31.6 µM. It also gave a GI50 [7] of 4.9 µM, a TGI [7] of 17 µM and a GI50 [8] of 23.6 µM. The TGI [8] was 56 µM, the GI50 [9] was 13.2 µM and the TGI [9] was > 100 µM. The GI50 [10] was 22.3 µM, the TGI [10] was 70.3 µM and the GI50 [11] was 15.1 µM. The TGI [11] was > 100 µM, the GI50 [12] was 5.06 µM and the TGI [12] was > 100 µM. It also gave a GI50 [13] of 15 µM, a TGI [13] of 32.8 µM and a GI50 [14] of 4.57 µM. It also gave a TGI [14] of 24.7 µM, a GI50 [15] of 9.41 µM and a TGI [15] of 36.9 µM. For the same molecule, the GI50 [16] was 4.02 µM, the TGI [16] was 16.2 µM and the GI50 [17] was 19.3 µM. For the same molecule, the TGI [17] was 90.6 µM, the GI50 [18] was 4.21 µM and the TGI [18] was 18.1 µM. For the same molecule, the GI50 [19] was 21.4 µM, the TGI [19] was > 100 µM and the GI50 [20] was 11.4 µM. It also gave a TGI [20] of 79 µM, a GI50 [21] of 8.62 µM and a TGI [21] of 41.9 µM. For the same molecule, the GI50 [22] was 5.22 µM, the TGI [22] was 91.6 µM and the GI50 [23] was 10.9 µM. The TGI [23] was 66 µM, the GI50 [24] was 25.4 µM and the TGI [24] was > 100 µM. For the same molecule, the GI50 [25] was 3.29 µM, the TGI [25] was 10.8 µM and the GI50 [26] was 5.83 µM. The TGI [26] was 17.9 µM, the GI50 [27] was 10.9 µM and the TGI [27] was 54.1 µM. For the same molecule, the GI50 [28] was 15.6 µM, the TGI [28] was 46.6 µM and the GI50 [29] was 24.6 µM. For the same molecule, the TGI [29] was > 100 µM, the GI50 [30] was 4.94 µM and the TGI [30] was 26.7 µM. It also gave a GI50 [31] of 5.92 µM, a TGI [31] of 25.1 µM and a GI50 [32] of 30.6 µM. For the same molecule, the TGI [32] was > 100 µM, the GI50 [33] was 17.1 µM and the TGI [33] was > 100 µM. It also gave a GI50 [34] of 19.2 µM, a TGI [34] of 49.3 µM and a GI50 [35] of 17.2 µM. For the same molecule, the TGI [35] was 82.2 µM, the GI50 [36] was 32.9 µM and the TGI [36] was > 100 µM. The GI50 [37] was 7.78 µM, the TGI [37] was 49.4 µM and the GI50 [38] was 4.88 µM. For the same molecule, the TGI [38] was 13.9 µM, the GI50 [39] was 5.32 µM and the TGI [39] was 27.1 µM. The GI50 [40] was 21.2 µM, the TGI [40] was 78.7 µM and the GI50 [41] was 26 µM. The TGI [41] was 87 µM, the GI50 [42] was 18.5 µM and the TGI [42] was 67.1 µM. It also gave a GI50 [43] of 22.3 µM, a TGI [43] of 97.1 µM and a GI50 [44] of 17.1 µM. The TGI [44] was 46.5 µM, the GI50 [45] was 15 µM and the TGI [45] was 37.6 µM. For the same molecule, the GI50 [46] was 13.6 µM, the TGI [46] was 57.1 µM and the GI50 [47] was 31.1 µM. The TGI [47] was > 100 µM, the GI50 [48] was 4.38 µM and the TGI [48] was 19.7 µM. It also gave a GI50 [49] of 3.46 µM, a TGI [49] of 8.82 µM and a GI50 [50] of 45.9 µM. For the same molecule, the TGI [50] was > 100 µM, the GI50 [51] was 6.41 µM and the TGI [51] was 33.1 µM. It also gave a GI50 [52] of 7.67 µM, a TGI [52] of 30 µM and a GI50 [53] of 17.2 µM. The TGI [53] was 58.8 µM, the GI50 [54] was 23.6 µM and the TGI [54] was > 100 µM. For the same molecule, the GI50 [55] was 14.5 µM and the TGI [55] was 38.7 µM.
